Assay results as given in patent US20080255192A1, “Methods and Compositions for Selectin Inhibition” (Wyeth, priority 2007, published 2008).

molecular target: T1, P-selectin/PSGL-1 interaction (Homo sapiens, UniProt P16109); assay: Biacore P-Selectin/PSGL-1 Inhibition Assay (surface plasmon resonance); type: binding; details: 250 uM test compound, 500 nM P.LE, immobilized PSGL-1 19ek, 10% DMSO, pH 7.4
T1 construct: comprised of the lectin and epidermal growth factor-like (EGF) domains expressed in CHO cells; made in house; host or cells: CHO cells (P-LE)
T1 sequence (P16109 42-198): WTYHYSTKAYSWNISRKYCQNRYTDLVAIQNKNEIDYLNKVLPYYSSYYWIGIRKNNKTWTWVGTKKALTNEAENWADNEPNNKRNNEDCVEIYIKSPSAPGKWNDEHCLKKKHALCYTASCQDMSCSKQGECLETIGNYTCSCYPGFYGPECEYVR
Outline: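 Biotinylated monomeric human PSGL-1 "19ek" on streptavidin chip (600–700 RU); compounds preincubated 1 h, then mixed with 500 nM P-LE (lectin-EGF, CHO-expressed) at 250 or 500 μM compound, 10% DMSO, HEPES buffer with 1 mM CaCl2/MgCl2, pH 7.4. SPR at 25 °C; percent binding inhibition from double-referenced signals.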

Point of comparison: `Cc1ccc2c(C(=O)O)c(O)c(C(C)(C)c3ccc(Cl)cc3)nc2c1C` [Compound 121, 2-(2-(4-Chlorophenyl)propan-2-yl)-3-hydroxy-7,8-dimethylquinoline-4-carboxylic acid], inhibition at 250 µM 56%. Against it:
- O=C(O)c1c(O)c(C2(c3ccc(Cl)cc3)CC2)nc2c(C3CC3)cccc12 [Compound 109, 2-[1-(4-chloro-phenyl)-cyclopropyl]-8-cyclopropyl-3-hydroxy-quinoline-4-carboxylic acid] — higher, 57%
- CCc1cccc2c(C(=O)O)c(O)c(C3(c4ccc(C)cc4)CC3)nc12 [Compound 82, 8-ethyl-2-(1-p-tolylcyclopropyl)-3-hydroxyquinoline-4-carboxylic acid] — lower, 38%
- Cc1ccc2c(C(=O)O)c(O)c(C3(c4ccccc4)CC3)nc2c1C [Compound 43, 3-hydroxy-7,8-dimethyl-2-(1-phenylcyclopropyl)quinoline-4-carboxylic acid] — lower, 18%
- O=C(O)c1c(O)c(C2(c3cccc(Cl)c3)CC2)nc2c(C(F)(F)F)cccc12 [Compound 54, 2-(1-(3-chlorophenyl)cyclopropyl)-3-hydroxy-8-(trifluoromethyl)quinoline-4-carboxylic acid] — higher, 66%
- Cc1ccc2c(C(=O)O)c(O)c(C(C)(C)c3ccccc3)nc2c1C [Compound 115, 3-hydroxy-7,8-dimethyl-2-(2-phenylpropan-2-yl)quinoline-4-carboxylic acid] — higher, 60%
- CCc1cccc2c(C(=O)O)c(O)c(C3(c4ccc(C(F)(F)F)cc4)CC3)nc12 [Compound 87, 8-ethyl-3-hydroxy-2-(1-(4-(trifluoromethyl)phenyl)cyclopropyl)quinoline-4-carboxylic acid] — higher, 61%
- CC(C)c1ccc2nc(C3(c4ccc(Cl)cc4)CC3)c(O)c(C(=O)O)c2c1 [Compound 25, 2-(1-(4-chlorophenyl)cyclopropyl)-3-hydroxy-6-isopropylquinoline-4-carboxylic acid] — lower, 14%
- CC(C)(c1ccc(Cl)cc1)c1nc2c(C(F)(F)F)cccc2c(C(=O)O)c1O [Compound 119, 2-(2-(4-Chlorophenyl)propan-2-yl)-3-hydroxy-8-(trifluoromethyl)quinoline-4-carboxylic acid] — lower, ≤ 10%
- O=C(O)c1c(O)c(C2(c3ccccc3)CC2)nc2c3c(ccc12)CCCC3 [Compound 42, 3-hydroxy-2-(1-phenylcyclopropyl)-7,8,9,10-tetrahydrobenzo[h]quinoline-4-carboxylic acid] — lower, 52%
- O=C(O)c1c(O)c(C2(c3ccc(Cl)cc3)CC2)nc2ccc(Br)cc12 [Compound 18, 6-bromo-2-(1-(4-chlorophenyl)cyclopropyl)-3-hydroxyquinoline-4-carboxylic acid] — lower, 28%
- O=C(O)c1c(O)c(C2(c3ccc(Cl)cc3)CCC2)nc2c(C(F)(F)F)cccc12 [Compound 58, 2-(1-(4-chlorophenyl)cyclobutyl)-3-hydroxy-8-(trifluoromethyl)quinoline-4-carboxylic acid] — lower, ≤ 10%
- CC(C)c1cccc2c(C(=O)O)c(O)c(C(C)Cc3ccccc3)nc12 (stereo not drawn) [Compound 133, 3-Hydroxy-8-isopropyl-2-(1-phenylpropan-2-yl)quinoline-4-carboxylic acid] — higher, 64%
- CCc1cc(C(F)(F)F)c2nc(C3(c4ccc(Cl)cc4)CC3)c(O)c(C(=O)O)c2c1 [Compound 98] — lower, ≤ 10%
- O=C(O)c1c(O)c(C2(c3ccc(Cl)cc3)CC2)nc2ccc(F)cc12 [Compound 17, 2-(1-(4-chlorophenyl)cyclopropyl)-6-fluoro-3-hydroxyquinoline-4-carboxylic acid] — lower, ≤ 10%
- O=C(O)c1c(O)c(C2(c3ccc(Cl)cc3)CC2)nc2c(C(F)(F)F)cc(Br)cc12 [Compound 103, 6-bromo-2-(1-(4-chlorophenyl)cyclopropyl)-3-hydroxy-8-(trifluoromethyl)quinoline-4-carboxylic acid] — lower, ≤ 10%
- CC(C)c1cccc2c(C(=O)O)c(O)c(C(c3ccccc3)C(C)C)nc12 (stereo not drawn) [Compound 130, 3-Hydroxy-8-isopropyl-2-(2-methyl-1-phenylpropyl)quinoline-4-carboxylic acid] — lower, 40%
- O=C(O)c1c(O)c(C2(c3ccccc3)CC2)nc2c(C3CC3)cccc12 [Compound 110, 8-cyclopropyl-3-hydroxy-2-(1-phenyl-cyclopropyl)-quinoline-4-carboxylic acid] — lower, 13%
